Source: US8912227B1, “Bicyclic pyrrole derivatives useful as agonists of GPR120” (Janssen Pharmaceutica NV, priority 2014, dated 2014)

Tests used:
[1] = target: T1, Human GPR120 short form (Homo sapiens, UniProt Q5NUL3); experiment: Human GPR120 calcium flux assay, Procedure Calcium A; format: cell-based; details: HEK-293 cells expressing human GPR120 short form, 2500 cells/well, FLIPR
T1 construct: expressed in transfected cells
T1 sequence (Q5NUL3 1-361): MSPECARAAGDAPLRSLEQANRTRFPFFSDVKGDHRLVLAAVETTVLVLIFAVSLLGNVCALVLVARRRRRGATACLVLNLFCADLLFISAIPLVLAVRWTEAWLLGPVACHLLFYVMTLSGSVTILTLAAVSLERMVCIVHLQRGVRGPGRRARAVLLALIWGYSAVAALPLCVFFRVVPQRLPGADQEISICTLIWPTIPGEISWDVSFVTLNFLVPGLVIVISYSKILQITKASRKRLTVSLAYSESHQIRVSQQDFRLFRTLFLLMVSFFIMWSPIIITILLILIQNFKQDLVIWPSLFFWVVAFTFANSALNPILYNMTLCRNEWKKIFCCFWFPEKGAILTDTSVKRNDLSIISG
Source text: (§1) This in vitro assay serves to assess test compound agonist activity against the short splice variant (SVS with Accession number NM_001195755.1 confirmed by sequencing data) of the GPR120 receptor. The Human Short splice variant #2 (NM_001195755.1) is missing an in-frame coding exon compared to variant 1 (the Human Long splice variant NM_181745.3), resulting in a shorter isoform (GPR120-S) lacking a 16 aa protein segment compared to isoform GPR120-L. The assay platform utilizes HEK-293 cells stably transfected to express the Human GPR120 short form. These cells are first loaded with the Ca^+2 sensitive dye, Fluo-4 NW. Upon stimulation, intracellular released Ca^+2 can bind to the dye and alter its fluorescence intensity. This increase in fluorescence signal, and thus the flux in intracellular [Ca^2+], is detected and quantitated by fluorescence imaging using a FLIPR reader. The effect of the agonist is measured as a function of concentration and used to calculate an EC50 based upon a response curve.
In this procedure 2500 cells/well were employed.
(§2) A Human GPR120 clone (Genbank accession number NM_001195755.1) was placed into the pcDNA3.1 mammalian expression vector carrying the neomycin resistance gene. A stable mammalian cell was generated by placing the above clone into a HEK293 background. Clonal cells responding to long chain fatty acids had expression levels of GPR120 confirmed by RT-qPCR. Human HEK-GPR120 cells were cultured in Dulbecco's Modified Eagle's Medium (DMEM)/F12 medium supplemented with 10% fetal bovine serum (FBS), 1% L-Glutamine and 1% penicillin/streptomycin and 0.5 mg/ml G-418. Cells were split 2 times a week to keep the cells in the log-phase growth.
(§3) In preparation for the assay, HEK cells stably transfected with Human GPR120 (2.5K cells per well in 25 uL growth medium) were seeded into 384-well plates and then incubated overnight (37° C., 5% CO2). The next day, the media was changed to 20 μl assay buffer and the cell starved for 1 h at 37° C. The dye loading solution (2× dye) was prepared using 10 ml assay buffer, 100 μl of 250 mM probenecid, 1 bottle of Component A, and 20 μl of dye in DMSO. Twenty μl of the 2× dye loading buffer was then added to each well. The plates were incubated at 37° C. for 30 min, then at room temperature for an additional 15 minutes, before performing the assay on FLIPR.
(§4) Test compounds were prepared in assay buffer (2 μl of test compound+198 μl assay buffer, final DMSO in assay plate is 0.2%) at the desired concentration, more particularly at 100 μM, 50 μM, 25 μM, 12.5 μM, 6.25 μM, 3.125 μM, 1.562 μM, 0.781 μM, 0.391 μM, 0.195 μM, 0.098 μM, 0.049 μM, 0.024 μM and 0.012 μM.
(§5) The assay was performed on a FLIPR plate reader using the following parameters. Baseline was read for 10 seconds at 1 sec intervals. The program was set to transfer 10 μL of ligand from compound plate to cell plate after baseline reading. Aspiration was executed at: 10 μl/sec speed, 4.6 μl height; Dispensing was executed at: 30 μl/sec speed, 45 μl height. After compound addition, each well was read for 300 sec, with measurements collected at 1 sec intervals.
(§6) The kinetic data from the FLIPR was based upon a 5 minute window for data collection. The fluorescence of each sample well was used for individual calculations of a normalized RFU value, which was defined as maximum response minus the minimum response. The normalized fluorescence reading (RFU) was calculated as follows: RFU=Fmax−Fmin
(§7) The data were fitted to a sigmoidal dose-response curve with a variable Hill slope (<2) using nonlinear regression with GraphPad Prism 5.0 to calculate the EC50 values. The Fitting Equation was: Y=Bottom+(Top−Bottom)/(1+10^((LogEC50−X)*HillSlope)), where X is the log of the concentration and Y is the response.

[2] = target: T1, Human GPR120 short form; experiment: Human GPR120 calcium flux assay, Procedure Calcium B; format: cell-based; details: HEK-293 cells expressing human GPR120 short form, 4200 cells/well, FLIPR
Source text: as §1
In this procedure 4200 cells/well were employed.
as §2, §3, §4, §5, §6, §7

Compound	EC50 [1] [nM]	EC50 [2] [nM]
O=C(O)CCc1ccc(OCc2cccn2-c2ccc(Cl)cc2)c(F)c1F [Compound 4, 3-(4-{[1-(4-Chlorophenyl)-1H-pyrrol-2-yl]methoxy}-2,3-difluorophenyl)propanoic acid]	> 20000	
CCc1ccc(-n2ccc(C(F)(F)F)c2COc2c(F)cc(CCC(=O)O)cc2F)cn1 [Compound 56, 3-(4-[[1-(6-ethylpyridin-3-yl)-3-(trifluoromethyl)-1H-pyrrol-2-yl]methoxy]-3,5-difluorophenyl)propanoic acid]	1410	877
COc1ccc(-n2ccc(C(F)(F)F)c2COc2ccc(CCC(=O)O)c(F)c2F)cn1 [Compound 57, 3-(2,3-difluoro-4-((1-(6-methoxypyridin-3-yl)-3-(trifluoromethyl)-1H-pyrrol-2-yl)methoxy)phenyl)propanoic acid trifluoroacetic acid]	840	77
Cc1c(CCC(=O)O)ccc(OCc2c(C(F)(F)F)ccn2-c2cccc(F)c2)c1C [Compound 84, 3-(4-{[1-(3-Fluorophenyl)-3-(trifluoromethyl)-1H-pyrrol-2-yl]methoxy}-2,3-dimethylphenyl)propanoic acid]		489
Cc1c(CCC(=O)O)ccc(OCc2c(Br)ccn2-c2ccc(Cl)cc2)c1C [Compound 14, 3-(4-{[3-Bromo-1-(4-chlorophenyl)-1H-pyrrol-2-yl]methoxy}-2,3-dimethylphenyl)propanoic acid]	2890	1400
Cc1c(CCC(=O)O)ccc(OCc2c(C(F)(F)F)ccn2-c2ccc(F)cc2)c1C [Compound 83, 3-(4-{[1-(4-Fluorophenyl)-3-(trifluoromethyl)-1H-pyrrol-2-yl]methoxy}-2,3-dimethylphenyl)propanoic acid]		346
O=C(O)CCc1cc(F)c(OCc2c(C(F)(F)F)ccn2-c2cccc(F)c2)c(F)c1 [Compound 85, 3-(3,5-Difluoro-4-{[1-(3-fluorophenyl)-3-(trifluoromethyl)-1H-pyrrol-2-yl]methoxy}phenyl)propanoic acid]		448
Cc1c(CCCO)ccc(OCc2c(C(F)(F)F)ccn2-c2ccc(Br)cc2)c1C [Compound 18, 3-(4-{[1-(4-Bromophenyl)-3-(trifluoromethyl)-1H-pyrrol-2-yl]methoxy}-2,3-dimethylphenyl)propan-1-ol]	1300	611
CCc1ccc(-n2ccc(C(F)(F)F)c2COc2ccc(CCCO)c(C)c2C)cc1 [Compound 40, 3-(4-[[1-(4-ethylphenyl)-3-(trifluoromethyl)-1H-pyrrol-2-yl]methoxy]-2,3-dimethylphenyl)propan-1-ol]	1920	896
Cc1c(CCC(=O)O)ccc(OCc2c(C(F)(F)F)ccn2-c2ccc(Br)cc2)c1C [Compound 23, 3-(4-{[1-(4-Bromophenyl)-3-(trifluoromethyl)-1H-pyrrol-2-yl]methoxy}-2,3-dimethylphenyl)propanoic acid]	1110	199
O=C(O)CCc1ccc(OCc2c(C(F)(F)F)ccn2-c2cccc(F)c2)cc1Cl [Compound 79, 3-(2-Chloro-4-{[1-(3-fluorophenyl)-3-(trifluoromethyl)-1H-pyrrol-2-yl]methoxy}phenyl)propanoic acid]		998
O=C(O)CCc1ccc(OCc2c(C(F)(F)F)ccn2-c2cccc(F)c2)cc1C(F)(F)F [Compound 81, 3-[4-{[1-(3-Fluorophenyl)-3-(trifluoromethyl)-1H-pyrrol-2-yl]methoxy}-2-(trifluoromethyl)phenyl]propanoic acid]		675
Cc1c(CCCO)ccc(OCc2c(Cl)ccn2-c2ccc(Cl)cc2)c1C [Compound 7, 3-(4-{[3-Chloro-1-(4-chlorophenyl)-1H-pyrrol-2-yl]methoxy}-2,3-dimethylphenyl)propan-1-ol]	1730	1170
Cc1ccc(-n2ccc(C(F)(F)F)c2COc2ccc(CCCO)c(C)c2C)cc1 [Compound 45, 3-(2,3-dimethyl-4-[[1-(4-methylphenyl)-3-(trifluoromethyl)-1H-pyrrol-2-yl]methoxy]phenyl)propan-1-ol]	1440	512
O=C(O)CCc1ccc(OCc2c(C(F)(F)F)ccn2-c2ccc(F)cc2)cc1Cl [Compound 80, 3-(2-Chloro-4-{[1-(4-fluorophenyl)-3-(trifluoromethyl)-1H-pyrrol-2-yl]methoxy}phenyl)propanoic acid]		923
CCc1ccc(-n2ccc(C(F)(F)F)c2COc2ccc(CCCO)c(F)c2F)cc1 [Compound 41, 3-(4-[[1-(4-ethylphenyl)-3-(trifluoromethyl)-1H-pyrrol-2-yl]methoxy]-2,3-difluorophenyl)propan-1-ol]	1260	247
Cc1cc(CCC(=O)O)ccc1OCc1c(C(F)(F)F)ccn1-c1ccc(F)cc1 [Compound 86, 3-(4-{[1-(4-Fluorophenyl)-3-(trifluoromethyl)-1H-pyrrol-2-yl]methoxy}-3-methylphenyl)propanoic acid]		280
CCc1ccc(-n2ccc(C(F)(F)F)c2COc2ccc(CCCO)c(F)c2F)cn1 [Compound 54, 3-(4-[[1-(6-ethylpyridin-3-yl)-3-(trifluoromethyl)-1H-pyrrol-2-yl]methoxy]-2,3-difluorophenyl)propan-1-ol]	497	115
CCc1ccc(-n2cccc2COc2ccc(CCC(=O)O)c(C)c2C)cc1 [Compound 2, 3-(4-{[1-(4-Ethylphenyl)-1H-pyrrol-2-yl]methoxy}-2,3-dimethylphenyl)propanoic acid]	> 20000	
O=C(O)CCc1cc(F)c(OCc2c(C(F)(F)F)ccn2-c2ccc(F)cc2)c(F)c1 [Compound 87, 3-(3,5-Difluoro-4-{[1-(4-fluorophenyl)-3-(trifluoromethyl)-1H-pyrrol-2-yl]methoxy}phenyl)propanoic acid]		134
O=C(O)CCc1ccc(OCc2c(C(F)(F)F)ccn2-c2ccc(F)cc2)cc1C(F)(F)F [Compound 82, 3-[4-{[1-(4-Fluorophenyl)-3-(trifluoromethyl)-1H-pyrrol-2-yl]methoxy}-2-(trifluoromethyl)phenyl]propanoic acid]		834
O=C(O)CCc1cc(F)c(OCc2c(C(F)(F)C(F)(F)F)ccn2-c2ccc(Cl)cc2)c(F)c1 [Compound 63, 3-(4-((1-(4-chlorophenyl)-3-(perfluoroethyl)-1H-pyrrol-2-yl)methoxy)-3,5-difluorophenyl)propanoic acid]		1150
Cc1cc(CCC(=O)O)ccc1OCc1c(C(F)(F)F)ccn1-c1cccc(F)c1 [Compound 88, 3-(4-{[1-(3-Fluorophenyl)-3-(trifluoromethyl)-1H-pyrrol-2-yl]methoxy}-3-methylphenyl)propanoic acid]		404
